Consider 17 compounds from ChEMBL document CHEMBL1141976, “Discovery of 2,3,5-trisubstituted pyridine derivatives as potent Akt1 and Akt2 dual inhibitors” (Bioorg Med Chem Lett, 2005).

The pIC50 is the negative decadic logarithm of the IC50, by convention in mol/L. Lower therefore signals a large IC50.

Each structure is given as a SMILES string. pIC50: −log10 of the molar value. A value given as a limit tells only on which side of the number the result lay.

Experiment [1] concerns the target RAC-alpha serine/threonine-protein kinase (Homo sapiens, UniProt P31749). Put plainly: Inhibitory concentration against Akt1 kinase.
Experiment [2] addresses RAC-gamma serine/threonine-protein kinase (Homo sapiens, UniProt Q9Y243). The experiment can be described thus: Inhibitory concentration against Akt3 kinase.
A short description of experiment [3]: Inhibitory concentration against Akt2 kinase. Further details: species or system Homo sapiens.

RAC-alpha serine/threonine-protein kinase, sequence (P31749 whole entry): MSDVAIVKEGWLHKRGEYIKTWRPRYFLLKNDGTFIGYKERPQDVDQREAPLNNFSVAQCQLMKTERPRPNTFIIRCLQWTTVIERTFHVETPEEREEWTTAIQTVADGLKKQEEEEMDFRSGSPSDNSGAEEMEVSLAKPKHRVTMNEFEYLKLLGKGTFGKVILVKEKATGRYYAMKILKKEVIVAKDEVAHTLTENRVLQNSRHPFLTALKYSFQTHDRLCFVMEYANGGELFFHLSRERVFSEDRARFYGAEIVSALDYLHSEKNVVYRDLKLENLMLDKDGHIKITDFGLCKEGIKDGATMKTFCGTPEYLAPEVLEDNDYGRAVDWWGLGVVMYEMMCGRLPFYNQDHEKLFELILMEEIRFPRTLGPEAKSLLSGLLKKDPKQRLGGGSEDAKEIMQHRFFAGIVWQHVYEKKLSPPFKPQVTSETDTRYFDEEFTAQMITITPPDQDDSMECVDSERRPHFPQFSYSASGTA
RAC-gamma serine/threonine-protein kinase, sequence (Q9Y243 whole entry, looked up): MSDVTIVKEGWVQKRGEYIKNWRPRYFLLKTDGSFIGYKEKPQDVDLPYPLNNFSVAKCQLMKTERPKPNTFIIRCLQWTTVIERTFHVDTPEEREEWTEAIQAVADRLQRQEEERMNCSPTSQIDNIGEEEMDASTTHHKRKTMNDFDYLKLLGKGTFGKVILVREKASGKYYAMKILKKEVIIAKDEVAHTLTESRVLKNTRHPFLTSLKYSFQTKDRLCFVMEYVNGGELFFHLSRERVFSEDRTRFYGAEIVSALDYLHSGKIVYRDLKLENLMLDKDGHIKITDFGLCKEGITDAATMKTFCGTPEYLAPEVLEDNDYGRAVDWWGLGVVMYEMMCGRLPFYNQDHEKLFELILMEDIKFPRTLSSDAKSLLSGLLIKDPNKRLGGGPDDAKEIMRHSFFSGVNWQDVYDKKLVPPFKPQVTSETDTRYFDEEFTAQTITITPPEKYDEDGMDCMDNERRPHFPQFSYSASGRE

On to `Oc1nc2ccccc2n1C1CCN(Cc2ccc(-c3cc4ccccc4nc3-c3ccccc3)cc2)CC1`, for which the pIC50 in experiment [1] was 5.50; in experiment [2], below 4.30; in experiment [3], 4.47.
Take `N#Cc1cnc(-c2ccc(CNCc3ccc(-c4csnn4)cc3)cc2)c(-c2ccccc2)c1`: the values for the pIC50 in experiment [1], in experiment [2] and in experiment [3] were 5.89, below 4.30 and 5.32, respectively.
For `c1ccc(-c2cc(-c3nn[nH]n3)cnc2-c2ccc(CNCc3ccc(-c4csnn4)cc3)cc2)cc1`, in that order: 6.75, below 4.30 and 6.61.
For the compound `c1ccc(-c2cc(-c3nn[nH]n3)cnc2-c2ccc(CN3CCC(c4nc5ccccc5[nH]4)CC3)cc2)cc1`, the pIC50 was 5.48 in experiment [1], below 4.30 in experiment [2] and 5.82 in experiment [3].
Turning to `Cc1ccc2[nH]c(C3CCN(Cc4ccc(-c5ncc(C#N)cc5-c5ccccc5)cc4)CC3)nc2c1`, the negative logarithm of the IC50 (pIC50) was 5.54 in experiment [1], below 4.30 in experiment [2] and 4.94 in experiment [3].
For `c1ccc(-c2cc(-c3nn[nH]n3)cnc2-c2ccc(CN3CCC(n4cnc5ccccc54)CC3)cc2)cc1`, in that order: 5.37, below 4.30 and 5.71.
For `N#Cc1cnc(-c2ccc(CN3CCC(n4cnc5ccccc54)CC3)cc2)c(-c2ccccc2)c1`, in that order: 5.36, below 4.30 and 4.89.
For `O=c1[nH]c2ccccc2n1C1CCN(Cc2ccc(-c3ncc(-c4nnn[nH]4)cc3-c3ccccc3)cc2)CC1`, in that order: 6.56, below 4.30 and 6.80.
`Cc1ccc2[nH]c(C3CCN(Cc4ccc(-c5ncc(-c6nn[nH]n6)cc5-c5ccccc5)cc4)CC3)nc2c1`: the pIC50 in experiment [1] was 6.12; in experiment [2] it was below 4.30; in experiment [3], 6.37.
With `N#Cc1cnc(-c2ccc(CN3CCC(n4c(=O)[nH]c5ccccc54)CC3)cc2)c(-c2ccccc2)c1`, the negative logarithm of the IC50 (pIC50) was 6.12 in experiment [1], below 4.30 in experiment [2] and 5.50 in experiment [3].
For `N#Cc1cnc(-c2ccc(CN3CCC(c4nc5cc(F)ccc5[nH]4)CC3)cc2)c(-c2ccccc2)c1`, in that order: 6.06, below 4.30 and 5.18.
Take `Cc1nc2ccccc2n1C1CCN(Cc2ccc(-c3ncc(C#N)cc3-c3ccccc3)cc2)CC1`: the pIC50 in experiment [1] is 5.13; in experiment [2], below 4.30; in experiment [3], 4.74.
For `Oc1nc2ccccc2n1C1CCN(Cc2ccc(-c3nc4ccccc4cc3-c3ccccc3)cc2)CC1`, in that order: 6.44, below 4.30 and 5.92.
For `Cn1nnnc1-c1cnc(-c2ccc(CN3CCC(n4c(=O)[nH]c5ccccc54)CC3)cc2)c(-c2ccccc2)c1`, the pIC50 was 5.75 in experiment [1] and 6.21 in experiment [3].
In the case of `N#Cc1cnc(-c2ccc(CN3CCC(c4nc5ccccc5[nH]4)CC3)cc2)c(-c2ccccc2)c1`, the pIC50 was 5.83 in experiment [1], below 4.30 in experiment [2] and 5.06 in experiment [3].
`Fc1ccc2[nH]c(C3CCN(Cc4ccc(-c5ncc(-c6nn[nH]n6)cc5-c5ccccc5)cc4)CC3)nc2c1`: the values for the negative logarithm of the IC50 (pIC50) in experiment [1], in experiment [2] and in experiment [3] were 6.62, below 4.30 and 5.76, respectively.
For `Cc1nc2ccccc2n1C1CCN(Cc2ccc(-c3ncc(-c4nn[nH]n4)cc3-c3ccccc3)cc2)CC1`, in that order: 5.16, below 4.30 and 5.56.
